Results from US4798898A, “Antitussive and mucus regulating 2-substituted thiazolidines” (Boehringer Biochemia Robin S.p.A., priority 1984, dated 1989).
Like-named read-outs stand apart in the source and are kept apart here.

What was measured:
[1] = system: pathological sputum of bronchitic rabbits; assay: Mucus regulating properties in bronchitic rabbits (sputum AUC as % compared to bronchitic controls); assay type: in vivo, male New Zealand white rabbits; details: for Fucose (mg/ml), AUC as a 100% compared to bronchitic controls / Galactose (mg/ml), AUC as a 100% compared to bronchitic controls / Mucus production (ml/kg), AUC as a 100% compared to bronchitic controls / Phospholipids (mg/ml), AUC as a 100% compared to bronchitic controls / Protein (mg/ml), AUC as a 100% compared to bronchitic controls / Sialic acid (mg/ml), AUC as a 100% compared to bronchitic controls / Viscosity (cps), AUC as a 100% compared to bronchitic controls: Table 2, equimolecular amounts to S-carboxymethyl cysteine; for mucus regulating activity (in words): rabbit, in vivo; for mucus regulating effectiveness compared with carboxymethylcysteine: dosage level 0.01-0.08M vs 0.153M carboxymethylcysteine
Description: The animals are submitted to inhalation of a 5% H2 SO3 aqueous solution by aerosol (exposition of 3 hours a day for 3 alternate days), to induce a chronic bronchial inflammatory disease which causes a production of pathological sputum in the bronchial tree.
Aim of the experiments is to evaluate modifications of selective parameters such as dry weight of the sputum, viscosity, content in proteins, phospholipids, galactose, sialic acid and fucose, induced in this pathological sputum by pharmacological treatment with the compounds of the invention.
To this purpose, the sputum produced in the bronchial tree is collected daily, through a "T" shaped glass cannula, inserted in the trachea, before and after oral twice a day (9.00 a.m. and 4.00 p.m.) treatment with one of the compounds of the invention.
The schedule treatment procedure is shown in the following Scheme 1: [drawing 21] where 0 indicates the day of implantation of the tracheal cannula; -7-5-3 indicate the days of H2 SO3 treatment (H); 1, 2, 3, 4 indicate the days of oral administration of the compounds of the invention (T) and the time of mucus collection (M).
The mucus collected in day 1 in the morning is considered as a blank; 7 indicates the day of the animal sacrifice after the mucous collection.
The sputum samples are stored in the freezer (-20° C.) until the investigation of biological and rheological parameters is carried out.
The samples are investigated for relative viscosity, measured at 37° C. with a Brookfield viscometer (model LT VD) equipped with a 1,565° cone-plate, and aliquoted for biochemical analysis of protein, phospholipids, galactose, sialic acid and fucose contents. Dry weight of the mucus is also determined. For each parameter, cumulative data are referred to a seven days period after the beginning of the treatment and they are extrapolated using the AUC method (area under curve) calculated by the trapazoidal rule. Finally the data are compared with data obtained from controls (vehicle treatment), non bronchitic rabbits (vehicle treatment) and positive controls bronchitic rabbits treated with 0.153M […].

[2] = system: cough induced by citric acid aerosol in guinea pigs; assay: Guinea pig cough test (citric acid aerosol, Charlier procedure); assay type: in vivo
Description: (§1) The techniques described by Charlier et al. (Arch. Int. Pharmacodyn. 134, 306, 1961) and by Stefko et al. (J. Pharm. Exp. Therap., 108, 217, 1953), adapted with minor modifications, are used to investigate the antitussive properties of the compounds of the invention. Codeine phosphate is used as positive reference compound.
According to the Charlier procedure guinea pigs are exposed to a citric acid aerosol (7.5%) and cough is recorded 60 minutes after the antitussive treatment by i.p. route. Male animals of 300-400 g pigs are placed in perspex box (20×30×30 cm) connected to an aerosol compressor; the animals are subjected to a citric acid saturated atmosphere, 60 minutes after the i.p. injection of a compound of the invention (0.1 and 0.3M solutions; 1 ml/kg).
The total number of cough strokes and the delay of the first cough are recorded during the first five minutes.
Five guinea pigs are used for each dose level and the results are compared with controls (vehicle treatment) and codeine phosphate 0.07M solution (standard treatment).
ED50 and the corresponding delay of first cough stroke are calculated.
The data obtained by i.p. administration are confirmed by oral administration.

[3] = system: cough induced by electric stimulation in dogs; assay: Dog cough test (cough induced by electric stimulation, Stefko procedure); assay type: in vivo, conscious mongrel dogs
Description: as §1
In the Stefko procedure, conscious mongrel dogs (15±3 kg body weight) are used; the compounds of the invention are tested for their ability to inhibit cough induced by electric stimulation.
Under general anesthesia, two insulated nichrome wires (0.4 mm diameter) are surgically implanted into the submucosa of the trachea.
About two days later, the dogs are placed in a sling and the exteriorized electrodes are connected to an electric stimulating device (such as Grass S 48 Mod.).
The stimulation parameters such as: delay 0.01 msec, duration 1 msec, frequency 30 Hz, are used.
An electrical stimulus of 1 sec is applied 10 times at 5 sec intervals in order to determine the minimum voltage necessary for eliciting reproducible cough responses. Then, tussive responses to the electrical stimuli are registered at 15, 30, 60, 90, 120, 150, 180, 240, 300 and 360 minutes after oral administration of the compounds of the invention.
The tussive responses are scored as follows: 1: no response; 2: sigh or exaggerated expiration; 3: marked cough; 4: one marked cough and one exaggerated expiration: 5: two marked coughs.
Six dogs are employed for each determination and the mean activity is calculated.
The inhibition percent of the cough response and the duration of activity are compared with codeine.

[4] = guinea pig cough test, i.p., 60 minutes after treatment
[5] = Cavia porcellus, ip, 1 h, guinea pig cough test, i.p., 60 minutes after treatment, read-out: ED50
[6] = Table 1, 0.153 M, oral, AUC over seven days

3-acetylthioacetyl-2-[2'-(o-acetylthioacetoxyphenyl)ethyl]thiazolidine
Fucose (mg/ml), AUC as a 100% compared to bronchitic controls ([1]; oral): 128% | Galactose (mg/ml), AUC as a 100% compared to bronchitic controls ([1]; oral): 67% | Mucus production (ml/kg), AUC as a 100% compared to bronchitic controls ([1]; oral): 76.1% | Phospholipids (mg/ml), AUC as a 100% compared to bronchitic controls ([1]; oral): 47.2% | Protein (mg/ml), AUC as a 100% compared to bronchitic controls ([1]; oral): 48% | Sialic acid (mg/ml), AUC as a 100% compared to bronchitic controls ([1]; oral): 36.2% | Viscosity (cps), AUC as a 100% compared to bronchitic controls ([1]; oral): 70% | mucus regulating activity (in words) [1]: particularly favourable increase of their mucus regulating activity | decrease of the antitussive potency in comparison with the reference compound 3 ([2]; guinea pig cough test): ~10 times | ED50 [2, 4]: 61 mg/kg

COc1ccccc1OCC1NCCS1 (centres unmarked) [2-(o-methoxyphenoxy)-methyl-thiazolidine, 2-(o-methoxyphenoxymethyl)thiazolidine]
Fucose (mg/ml), AUC as a 100% compared to bronchitic controls ([1]; oral): 76% | Galactose (mg/ml), AUC as a 100% compared to bronchitic controls ([1]; oral): 59% | Mucus production (ml/kg), AUC as a 100% compared to bronchitic controls ([1]; oral): 124% | Phospholipids (mg/ml), AUC as a 100% compared to bronchitic controls ([1]; oral): 106% | Protein (mg/ml), AUC as a 100% compared to bronchitic controls ([1]; oral): 92% | Sialic acid (mg/ml), AUC as a 100% compared to bronchitic controls ([1]; oral): 85% | Viscosity (cps), AUC as a 100% compared to bronchitic controls ([1]; oral): 116%

COc1ccccc1OCC1SCCN1C(=O)CSC(=O)CCC1CCCCC1 (centres unmarked) [3-(3'-cyclohexyl)propionylthioacetyl-2-(o-methoxyphenoxy)methyl-thiazolidine]
ED50 [2, 5]: 0.5 to 4 mg/kg

CCOCCOCC(=O)N1CCSC1COc1ccccc1OC (centres unmarked) [3-(3,6-dioxa-capriloyl)-2-(O-methoxyphenoxy)methyl-thiazolidine]
mucus regulating effectiveness compared with carboxymethylcysteine [1]: at least as effective as 0.153M of 5-carboxymethylcysteine

COc1ccccc1OCC1SCCN1C(=O)CCn1ccnc1 (centres unmarked) [3-(3-imidazol-1-yl)-propionyl-2-(O-methoxyphenoxy)methylthiazolidine]
mucus regulating effectiveness compared with carboxymethylcysteine [1]: at least as effective as 0.153M of 5-carboxymethylcysteine

C#CCOc1ccccc1OCC1SCCN1C(=O)CCn1ccnc1 (centres unmarked) [3-(3-imidazol-1-yl)-propionyl-2-(O-propargyloxyphenoxy)methyl-thiazolidine]
mucus regulating effectiveness compared with carboxymethylcysteine [1]: at least as effective as 0.153M of 5-carboxymethylcysteine

CCOCCSCC(=O)N1CCSC1COc1ccccc1OC (centres unmarked) [3-(3-thia-6-oxa-capriloyl)-2-(O-methoxyphenoxy)methylthiazolidine]
mucus regulating effectiveness compared with carboxymethylcysteine [1]: at least as effective as 0.153M of 5-carboxymethylcysteine

COc1ccccc1OCC1SCCN1C(=O)CN1CCN(C)CC1 (centres unmarked) [3-(4'-methyl-piperazin-1'-yl)acetyl-2-(o-methoxyphenoxy)methyl-thiazolidine]
ED50 [2, 5]: 0.5 to 4 mg/kg

COc1ccccc1OCC1SCCN1C(=O)CSC(=O)CN1CCN(C)CC1 (centres unmarked) [3-(4'-methylpiperazine-1-yl)acetylthioacetyl-2-(o-methoxyphenoxy)methylthiazolidine]
ED50 [2, 5]: 0.5 to 4 mg/kg

CC(=O)SCC(=O)N1CCSC1COc1ccccc1O (centres unmarked) [3-acetylthio-acetyl-2-[(o-hydroxyphenoxy)methyl]thiazolidine]
Fucose (mg/ml), AUC as a 100% compared to bronchitic controls ([1]; oral): 90.8% | Galactose (mg/ml), AUC as a 100% compared to bronchitic controls ([1]; oral): 38.2% | Mucus production (ml/kg), AUC as a 100% compared to bronchitic controls ([1]; oral): 99.2% | Phospholipids (mg/ml), AUC as a 100% compared to bronchitic controls ([1]; oral): 47% | Protein (mg/ml), AUC as a 100% compared to bronchitic controls ([1]; oral): 62.0% | Sialic acid (mg/ml), AUC as a 100% compared to bronchitic controls ([1]; oral): 49.5% | Viscosity (cps), AUC as a 100% compared to bronchitic controls ([1]; oral): 31.9% | mucus regulating activity (in words) [1]: particularly favourable increase of their mucus regulating activity | ED50 [2, 5]: 60 mg/kg | decrease of the antitussive potency in comparison with the reference compound 3 ([2]; guinea pig cough test): ~10 times

CC(=O)SCC(=O)N1CCSC1COc1ccccc1C (centres unmarked) [3-acetylthioacetyl-2-(o-tolyloxymethyl)thiazolidine]
fucose content in the mucus (in words) ([1]; tested as mucus regulator): increases | galactose content in the mucus (in words) ([1]; tested as mucus regulator): poorly affecting | protein content in the mucus (in words) ([1]; tested as mucus regulator): increases | sialic content in the mucus (in words) ([1]; tested as mucus regulator): poorly affecting | viscosity of the mucus (in words) ([1]; tested as mucus regulator): increases | antitussive properties (in words) [2]: devoid of any antitussive properties

COc1ccccc1OCC1SCCN1C(=O)CSC(=O)c1ccccc1 (centres unmarked) [3-benzoylthioacetyl-2-(o-methoxyphenoxy)methyl-thiazolidine]
ED50 [2, 5]: 0.5 to 4 mg/kg

CC(=O)SCC(=O)Oc1ccccc1OCC1SCCN1C(=O)CSC(C)=O (stereo not drawn) [3-α-acetylthioacetyl-2-[(o-α-acetylthioacetoxyphenoxy)methyl]thiazolidine]
Fucose (mg/ml), AUC as a 100% compared to bronchitic controls ([1]; oral): 147.9% | Galactose (mg/ml), AUC as a 100% compared to bronchitic controls ([1]; oral): 72.9% | Mucus production (ml/kg), AUC as a 100% compared to bronchitic controls ([1]; oral): 74.0% | Phospholipids (mg/ml), AUC as a 100% compared to bronchitic controls ([1]; oral): 49.8% | Protein (mg/ml), AUC as a 100% compared to bronchitic controls ([1]; oral): 46.9% | Sialic acid (mg/ml), AUC as a 100% compared to bronchitic controls ([1]; oral): 31.3% | Viscosity (cps), AUC as a 100% compared to bronchitic controls ([1]; oral): 71.9% | mucus regulating activity (in words) [1]: particularly favourable increase of their mucus regulating activity | ED50 [2, 5]: 162 mg/kg | decrease of the antitussive potency in comparison with the reference compound 3 ([2]; guinea pig cough test): ~10 times

COc1ccccc1SCC1SCCN1C(=O)CSC(C)=O (stereo not drawn) [3α-acetylthioacetyl-2-(o-methoxyphenylthio)methyl-thiazolidine]
ED50 [2, 5]: 0.5 to 4 mg/kg

CCOC(=O)[C@@H]1CSC(COc2ccccc2OC)N1 (some centres unmarked) [4-carbethoxy-2-(o-methoxyphenoxy)methyl-thiazolidine]
ED50 [2, 4]: inactive | duration of action ([3]; dog cough test, in words): short | % inhibition of cough stimulus ([3]; dog, oral, dose not given): 26.7%

O=C(O)C1CSC(COc2ccccc2O)N1 (centres unmarked) [4-carboxy-2-[(o-hydroxyphenoxy)methyl]-thiazolidine]
mucus regulating activity (in words) [1]: high mucus regulating activity | antitussive properties (in words) [2]: reduced antitussive potency

N[C@@H](CSCC(=O)O)C(=O)O [S--carboxymethyl cysteine, S-carboxymethyl cysteine, reference compound]
Fucose mg/ml, AUC as a % compared to bronchitic controls [1, 6]: 56% | Galactose mg/ml, AUC as a % compared to bronchitic controls [1, 6]: 64% | Mucus production ml/kg, AUC as a % compared to bronchitic controls [1, 6]: 97% | Phospholipids mg/ml, AUC as a % compared to bronchitic controls [1, 6]: 108% | Protein mg/ml, AUC as a % compared to bronchitic controls [1, 6]: 105% | Sialic acid mg/ml, AUC as a % compared to bronchitic controls [1, 6]: 60% | Viscosity (cps), AUC as a % compared to bronchitic controls [1, 6]: 52%

COc1ccc2c3c1O[C@H]1[C@@H](O)C=C[C@H]4[C@@H](C2)N(C)CC[C@@]341 [codeine phosphate, reference compound]
ED50 ([2]; Cavia porcellus, ip, 1 h): ~23 mg/kg | % delay of the first cough ([2]; guinea pig cough test, control 100): 170% | duration of inhibition of the cough stimulus ([3]; dog, 8 mg/kg): 2 to 4 h | inhibition of the cough stimulus ([3]; dog, 8 mg/kg): 52%
